Consider 33 compounds from patent US11377425B1, “Small molecule modulators of IL-17” (LEO Pharma A/S, priority 2018, dated 2022).

The structures appear in SMILES notation. pEC50: −log10 of the molar value.

The experiment deals with T1, human IL-17AA (Homo sapiens, UniProt Q16552).
T1 construct: host or cells: HEK (human embryonic kidney) cells
T1 sequence (Q16552 24-155): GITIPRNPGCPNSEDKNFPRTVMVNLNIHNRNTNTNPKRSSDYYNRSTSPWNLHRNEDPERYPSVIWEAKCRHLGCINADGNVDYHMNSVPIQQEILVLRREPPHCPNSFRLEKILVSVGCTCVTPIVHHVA
Put plainly: IL-8 release assay in human epithelial keratinocytes adult (HEKa). Type of experiment: cell-based. To be noted: HEKa cells, 3 ng/mL HEK-human IL-17AA + 10 ng/mL human TNFalpha; read-out: Rel EC50 IL-8 release assay. The procedure: Example 138: IL-8 Release Assay in Human Epithelial Keratinocytes Adult (HEKa)
Keratinocytes were seeded at 3500 cells/well in 384-well ViewPlates (Perkin Elmer) in Epilife medium (Thermo Fisher) containing human keratinocyte growth supplement (HKGS) without hydrocortisone and incubated in a humid incubator at 37° C. 5% CO2, overnight. The following day growth medium was removed and 25 μl fresh Epilife medium added. 75 nL test compound in 100% DMSO was added into each well reserved for test compounds, by the use of acoustic pipetting. The remaining wells received an equal volume of DMSO only, as vehicle control, or terfenadine in DMSO, as a positive control for any cytotoxic compounds. Subsequently, another 25 μL Epilife medium was added to each well. Finally, wells containing test compounds and wells prepared to yield maximum stimulation received […] of 9 ng/mL recombinant, human embryonic kidney cell (HEK)-derived human IL-17AA+30 ng/mL human TNF-alpha, in Epilife medium. Wells prepared to define 100% inhibition of IL-17 effects received 25 μL of 30 ng/mL human TNF-alpha alone, in Epilife medium. Final concentrations were 3 ng/mL HEK-human IL-17AA+10 ng/mL human TNFalpha (maximum stimulation) and 10 ng/mL human TNFalpha alone (100% inhibition, Emax), respectively. Cells were incubated for 68-72 hours in the incubator. IL-8 released from the cells was measured by the use of a commercial homogenous time-resolved fluorescence (HTRF) assay (CisBio). 2 μL cell culture supernatant was transferred to a 384-well Proxiplate. 5 μL HTRF reagent was added and the plates incubated sealed in the dark for 3-22 hours at room temperature. Time-resolved fluorescence was read at 665 vs 620 nm, with excitation at 320 nm, and IL-8 levels calculated as percent of controls. Reduction of the amount of secreted IL-8 indicates decreased IL-17 signaling. Concentration response curves were fitted by the use of a four-parameter logistic equation. Relative IC50 and Emax were reported from curves showing acceptable fit (r^2>0.9). Cytotoxicity was measured in the cell-containing Viewplates following addition of 7 μL PrestoBlue (Thermo Fisher) and incubation for 2.5-3 hours at room temperature, by measuring fluorescence at 615 nm (excitation at 535 nm). Fluorescence was directly proportional to the amount of metabolic activity. Reduction of fluorescence signal indicated cytotoxicity.
Compounds of the present invention were tested in the IL-8 release assay in human epithelial keratinocytes.
Compounds having a Relative EC50 of X; wherein X<100 nM; are indicated with *
Compounds having a Relative EC50 of X; wherein 100 nM<X<1000 nM; are indicated with **
Compounds having a Relative EC50 of X; wherein 1000 nM<X; are indicated with ***
Usually pEC50 stands for the EC50 on a negative log10 scale, so that one unit is a factor of ten. In the case of `Cc1n[nH]c(C)c1-c1ccc(NC(=O)[C@@H](NC(=O)c2ccnn2C(C)CO)[C@@H]2CC(C)(C)CCC2(F)F)cc1` (single isomer, unassigned) [Example 211], the pEC50 is over 7.00. In the case of `Cc1n[nH]c(C)c1-c1ccc(NC(=O)[C@@H](NC(=O)c2ccnn2C)C2CC23CCC3)cc1` (single isomer, unassigned) [Example 223], the negative logarithm of the EC50 (pEC50) is under 6.00. Regarding `Cc1n[nH]c(C)c1-c1ccc(NC(=O)[C@@H](NC(=O)c2ccnn2C)C2CC2(C)C)cc1` (single isomer, unassigned) [Example 224], the negative logarithm of the EC50 (pEC50) is under 6.00. In the case of `Cc1n[nH]c(C)c1-c1ccc(NC(=O)[C@@H](NC(=O)c2ccnn2C(C)CCO)C(C2CC2)C2CC2)cc1` (single isomer, unassigned) [Example 225], the negative-log EC50 (pEC50) is over 7.00. For the compound `Cc1n[nH]c(C)c1-c1ccc(NC(=O)[C@@H](NC(=O)c2ccnn2C(C)CCO)C(C2CC2)C2CC2)cc1` (single isomer, unassigned) [Example 226], the negative logarithm of the EC50 (pEC50) is over 7.00. As for `CCC(c1ccccc1)C(NC(=O)c1ccnn1C)C(=O)Nc1ccc(-c2c(C)n[nH]c2C)cc1` (single isomer, unassigned) [Example 227], the pEC50 was under 6.00. As for `CCC(c1ccccc1)C(NC(=O)c1ccnn1C)C(=O)Nc1ccc(-c2c(C)n[nH]c2C)cc1` (single isomer, unassigned) [Example 228], the negative-log EC50 (pEC50) is 6.00 to 7.00.

For `Cc1n[nH]c(C)c1-c1ccc(NC(=O)[C@@H](NC(=O)c2ccnn2C)C2CCC2(C)C)cc1` (single isomer, unassigned) [Example 232], the pEC50 is 6.00 to 7.00.

For the compound `Cc1n[nH]c(C)c1-c1ccc(NC(=O)C(NC(=O)c2ccnn2C)[C@@H](C)c2ccccc2)cc1` (single isomer, unassigned) [Example 234], the pEC50 is 6.00 to 7.00. `Cc1n[nH]c(C)c1-c1ccc(NC(=O)C(NC(=O)c2ccnn2C)C(C)c2ccccc2)cc1` (single isomer, unassigned) [Example 235]: the negative-log EC50 (pEC50) was under 6.00. On to `Cc1n[nH]c(C)c1-c1ccc(NC(=O)C(NC(=O)c2ccnn2C)C(C)c2ccccc2)cc1` (single isomer, unassigned) [Example 236], for which the negative-log EC50 (pEC50) was under 6.00. The figure for `Cc1n[nH]c(C)c1-c1ccc(NC(=O)C(NC(=O)c2ccnn2C)C(C)c2ccccc2)cc1` (single isomer, unassigned) [Example 237] is under 6.00; for `Cc1n[nH]c(C)c1-c1ccc(NC(=O)[C@@H](NC(=O)c2ccnn2C)C2CCCC(C)(C)C2)cc1` (single isomer, unassigned) [Example 239] it is over 7.00. The figure for `Cc1n[nH]c(C)c1-c1ccc(NC(=O)C(NC(=O)c2ccnn2C)C2CCc3c(F)cccc32)cc1` (single isomer, unassigned) [Example 247] is over 7.00. With `Cc1n[nH]c(C)c1-c1ccc(NC(=O)C(NC(=O)c2ccnn2C)C2CCc3c(F)cccc32)cc1` (single isomer, unassigned) [Example 248], the negative logarithm of the EC50 (pEC50) was under 6.00. In the case of `Cc1n[nH]c(C)c1-c1ccc(NC(=O)[C@@H](NC(=O)c2ccnn2C)C2CC3CCC2CC3)cc1` (single isomer, unassigned) [Example 254], the pEC50 was 6.00 to 7.00. For the compound `Cc1n[nH]c(C)c1-c1ccc(NC(=O)C(NC(=O)c2ccnn2C)[C@H]2CCCc3c(F)cc(F)cc32)cc1` (single isomer, unassigned) [Example 255], the pEC50 is over 7.00.

On to `Cc1n[nH]c(C)c1-c1ccc(NC(=O)C(NC(=O)c2ccnn2C)[C@H]2CCCc3c(F)cccc32)cc1` (single isomer, unassigned) [Example 256], for which the pEC50 is over 7.00. Take `CCC(C1CCCCC1)C(NC(=O)c1ccnn1C)C(=O)Nc1ccc(-c2c(C)n[nH]c2C)cc1` (single isomer, unassigned) [Example 257]: the negative logarithm of the EC50 (pEC50) is over 7.00. As to `CCC(C1CCCCC1)C(NC(=O)c1ccnn1C)C(=O)Nc1ccc(-c2c(C)n[nH]c2C)cc1` (single isomer, unassigned) [Example 258], the pEC50 is over 7.00. Turning to `Cc1n[nH]c(C)c1-c1ccc(NC(=O)C(NC(=O)c2ccnn2C)C2CCCc3cc(F)ccc32)cc1` (single isomer, unassigned) [Example 259], the negative-log EC50 (pEC50) was under 6.00. The value for `Cc1n[nH]c(C)c1-c1ccc(NC(=O)C(NC(=O)c2ccnn2C)C2CCCc3cc(F)ccc32)cc1` (single isomer, unassigned) [Example 260] was over 7.00; that for `Cc1n[nH]c(C)c1-c1ccc(NC(=O)[C@@H](NC(=O)c2ccnn2C)C2C[C@@H](C)C[C@@H](C)C2)cc1` (single isomer, unassigned) [Example 268] was over 7.00; that for `Cc1n[nH]c(C)c1-c1ccc(NC(=O)[C@@H](NC(=O)c2ccnn2C)C2CCC(C(F)(F)F)CC2)cc1` (single isomer, unassigned) [Example 269] was 6.00 to 7.00. As to `Cc1n[nH]c(C)c1-c1ccc(NC(=O)C(NC(=O)c2ccnn2C)C(c2ccccc2)C2CCC2)cc1` (single isomer, unassigned) [Example 299, N-[1-[cyclobutyl(phenyl)methyl]-2-[4-(3,5-dimethyl-1H-pyrazol-4-yl)anilino]-2-oxo-ethyl]-2-methyl-pyrazole-3-carboxamide], the pEC50 is over 7.00. Consider `Cc1n[nH]c(C)c1-c1ccc(NC(=O)C(NC(=O)c2ccnn2C)C(c2ccccc2)C2CCC2)cc1` (single isomer, unassigned) [Example 300, N-[1-[cyclobutyl(phenyl)methyl]-2-[4-(3,5-dimethyl-1H-pyrazol-4-yl)anilino]-2-oxo-ethyl]-2-methyl-pyrazole-3-carboxamide], for which the pEC50 was under 6.00. Take `Cc1n[nH]c(C)c1-c1ccc(NC(=O)C(NC(=O)c2ccnn2C)C(c2ccccc2)C2CC2)cc1` (single isomer, unassigned) [Example 301, N-[1-[cyclopropyl(phenyl)methyl]-2-[4-(3,5-dimethyl-1H-pyrazol-4-yl)anilino]-2-oxo-ethyl]-2-methyl-pyrazole-3-carboxamide]: the negative logarithm of the EC50 (pEC50) is 6.00 to 7.00. For `Cc1n[nH]c(C)c1-c1ccc(NC(=O)C(NC(=O)c2ccnn2C)C(c2ccccc2)C2CC2)cc1` (single isomer, unassigned) [Example 302, N-[1-[cyclopropyl(phenyl)methyl]-2-[4-(3,5-dimethyl-1H-pyrazol-4-yl)anilino]-2-oxo-ethyl]-2-methyl-pyrazole-3-carboxamide], the negative logarithm of the EC50 (pEC50) was under 6.00. The value for `Cc1n[nH]c(C)c1-c1ccc(NC(=O)C(NC(=O)c2ccnn2C)C(c2ccccc2)C2CC2)cc1` (single isomer, unassigned) [Example 303, N-[1-[cyclopropyl(phenyl)methyl]-2-[4-(3,5-dimethyl-1H-pyrazol-4-yl)anilino]-2-oxo-ethyl]-2-methyl-pyrazole-3-carboxamide] was 6.00 to 7.00; that for `Cc1n[nH]c(C)c1-c1ccc(NC(=O)C(NC(=O)c2ccnn2C)C(c2ccccc2)C2CC2)cc1` (single isomer, unassigned) [Example 304, N-[1-[cyclopropyl(phenyl)methyl]-2-[4-(3,5-dimethyl-1H-pyrazol-4-yl)anilino]-2-oxo-ethyl]-2-methyl-pyrazole-3-carboxamide] was under 6.00. Consider `Cn1cncc1-c1ccc(NC(=O)C(NC(=O)OC(C)(C)C)C(c2ccccc2)C2CCC2)cc1` (single isomer, unassigned) [Example 310, tert-butyl N-[1-[cyclobutyl(phenyl)methyl]-2-[4-(3-methylimidazol-4-yl)anilino]-2-oxo-ethyl]carbamate], for which the pEC50 was under 6.00. The value for `Cn1cncc1-c1ccc(NC(=O)C(NC(=O)OC(C)(C)C)C(c2ccccc2)C2CCC2)cc1` (single isomer, unassigned) [Example 311, tert-butyl N-[1-[cyclobutyl(phenyl)methyl]-2-[4-(3-methylimidazol-4-yl)anilino]-2-oxo-ethyl]carbamate] was under 6.00; that for `Cn1cncc1-c1ccc(NC(=O)[C@@H](NC(=O)OC(C)(C)C)C(C2CCCCC2)C2CCCC2)cc1` (single isomer, unassigned) [Example 312] was under 6.00.
